Key:
Assay in all cases: RBC kinase panel
Format in all cases: biochemical
LRRK2 = biological target: T1, LRRK2 (Homo sapiens, UniProt Q5S007); details: ATP 10 μM, Data1, Data2
T1 construct: purchased Reaction Biology Corporation
Procedure, shortened: (§1)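 1 μM inhibitor; n = 2; ATP 10 μM; broad panel of 369 human kinases.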

HCK = biological target: T2, HCK (Homo sapiens, UniProt P08631); details: ATP 10 μM, Data1, Data2
T2 construct: purchased Reaction Biology Corporation
Procedure, shortened: as §1

CDK9/cyclin T1 = biological target: T3, CDK9/cyclin T1 (Homo sapiens, UniProt P50750); details: ATP 10 μM, Data1, Data2
T3 construct: purchased Reaction Biology Corporation
Procedure, shortened: as §1

GSK3a = biological target: T4, GSK3a (Homo sapiens, UniProt P49840); details: ATP 10 μM, Data1, Data2
T4 construct: purchased Reaction Biology Corporation
Procedure, shortened: as §1

LIMK2 = biological target: T5, LIMK2 (Homo sapiens, UniProt P53671)
T5 construct: purchased Reaction Biology Corporation
T5 sequence (P53671 whole entry): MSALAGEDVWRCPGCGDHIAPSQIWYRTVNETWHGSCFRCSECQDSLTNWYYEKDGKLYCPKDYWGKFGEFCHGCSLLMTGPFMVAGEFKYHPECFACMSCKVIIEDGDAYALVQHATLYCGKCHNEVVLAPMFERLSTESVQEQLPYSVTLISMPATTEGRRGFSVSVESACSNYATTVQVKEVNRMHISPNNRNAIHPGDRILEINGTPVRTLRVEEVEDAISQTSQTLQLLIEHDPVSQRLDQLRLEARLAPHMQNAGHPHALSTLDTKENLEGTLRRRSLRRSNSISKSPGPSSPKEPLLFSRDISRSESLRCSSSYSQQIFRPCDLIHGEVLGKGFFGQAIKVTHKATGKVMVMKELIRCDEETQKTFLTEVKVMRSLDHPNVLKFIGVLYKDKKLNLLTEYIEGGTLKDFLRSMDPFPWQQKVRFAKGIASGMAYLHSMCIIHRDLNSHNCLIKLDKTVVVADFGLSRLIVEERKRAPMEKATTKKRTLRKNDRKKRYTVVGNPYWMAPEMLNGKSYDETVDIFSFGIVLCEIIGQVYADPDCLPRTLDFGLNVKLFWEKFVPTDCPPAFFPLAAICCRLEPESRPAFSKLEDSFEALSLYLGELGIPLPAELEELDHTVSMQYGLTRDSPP
Procedure, shortened: as §1

PKG1b = biological target: T6, PKG1b (Homo sapiens, UniProt Q13976); details: ATP 10 μM, Data1, Data2
T6 construct: purchased Reaction Biology Corporation
Procedure, shortened: as §1

PKA = biological target: T7, PKA (Homo sapiens, UniProt P17612); details: ATP 10 μM, Data1, Data2
T7 construct: purchased Reaction Biology Corporation
Procedure, shortened: as §1

FES/FPS = biological target: T8, FES/FPS (Homo sapiens, UniProt P07332); details: ATP 10 μM, Data1, Data2
T8 construct: purchased Reaction Biology Corporation
Procedure, shortened: as §1

NEK9 = biological target: T9, NEK9 (Homo sapiens, UniProt Q8TD19); details: ATP 10 μM, Data1, Data2
T9 construct: purchased Reaction Biology Corporation
Procedure, shortened: as §1

CAMK2d = biological target: T10, CAMK2d (Homo sapiens, UniProt Q13557); details: ATP 10 μM, Data1, Data2
T10 construct: purchased Reaction Biology Corporation
Procedure, shortened: as §1

IKKb/IKBKB = biological target: T11, IKKb/IKBKB (Homo sapiens, UniProt O14920); details: ATP 10 μM, Data1, Data2
T11 construct: purchased Reaction Biology Corporation
Procedure, shortened: as §1

c-MET = biological target: T12, c-MET (Homo sapiens, UniProt P08581); details: ATP 10 μM, Data1, Data2
T12 construct: purchased Reaction Biology Corporation
Procedure, shortened: as §1

PKCzeta = biological target: T13, PKCzeta (Homo sapiens, UniProt Q05513); details: ATP 10 μM, Data1, Data2
T13 construct: purchased Reaction Biology Corporation
Procedure, shortened: as §1

SRPK1 = biological target: T14, SRPK1 (Homo sapiens, UniProt Q96SB4); details: ATP 10 μM, Data1, Data2
T14 construct: purchased Reaction Biology Corporation
Procedure, shortened: as §1

RSK1 = biological target: T15, RSK1 (Homo sapiens, UniProt Q15418); details: ATP 10 μM, Data1, Data2
T15 construct: purchased Reaction Biology Corporation
Procedure, shortened: as §1

FGFR4 = biological target: T16, FGFR4 (Homo sapiens, UniProt P22455); details: ATP 10 μM, Data1, Data2
T16 construct: purchased Reaction Biology Corporation
Procedure, shortened: as §1

KSR2 = biological target: T17, KSR2 (Homo sapiens, UniProt Q6VAB6); details: ATP 10 μM, Data1, Data2
T17 construct: purchased Reaction Biology Corporation
T17 sequence (Q6VAB6 whole entry): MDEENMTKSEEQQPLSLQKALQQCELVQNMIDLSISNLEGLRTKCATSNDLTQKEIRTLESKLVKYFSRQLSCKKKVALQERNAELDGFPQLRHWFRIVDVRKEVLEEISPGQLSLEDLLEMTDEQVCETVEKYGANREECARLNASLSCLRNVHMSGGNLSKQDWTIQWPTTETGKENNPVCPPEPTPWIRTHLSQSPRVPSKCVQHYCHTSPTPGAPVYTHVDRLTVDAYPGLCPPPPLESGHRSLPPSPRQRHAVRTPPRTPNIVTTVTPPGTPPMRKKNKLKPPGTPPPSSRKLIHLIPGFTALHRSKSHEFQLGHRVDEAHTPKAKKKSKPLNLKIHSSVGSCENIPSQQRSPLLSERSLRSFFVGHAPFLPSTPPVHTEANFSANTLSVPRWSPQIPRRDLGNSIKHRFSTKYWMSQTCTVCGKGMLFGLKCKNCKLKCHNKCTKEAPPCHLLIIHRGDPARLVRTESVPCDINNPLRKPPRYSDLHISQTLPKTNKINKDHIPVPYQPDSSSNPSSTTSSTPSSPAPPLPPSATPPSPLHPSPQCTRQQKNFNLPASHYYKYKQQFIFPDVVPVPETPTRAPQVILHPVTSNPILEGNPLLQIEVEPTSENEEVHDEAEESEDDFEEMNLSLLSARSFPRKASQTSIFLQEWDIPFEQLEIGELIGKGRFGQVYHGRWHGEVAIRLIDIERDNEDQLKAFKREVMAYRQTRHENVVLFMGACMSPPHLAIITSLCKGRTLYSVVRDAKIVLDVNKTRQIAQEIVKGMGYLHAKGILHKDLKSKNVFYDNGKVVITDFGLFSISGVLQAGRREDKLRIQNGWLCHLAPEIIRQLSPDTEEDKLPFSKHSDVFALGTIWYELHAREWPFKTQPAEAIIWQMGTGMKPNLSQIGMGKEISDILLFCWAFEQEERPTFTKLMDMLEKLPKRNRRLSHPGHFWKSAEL
Procedure, shortened: as §1

NLK = biological target: T18, NLK (Homo sapiens, UniProt Q9UBE8); details: ATP 10 μM, Data1, Data2
T18 construct: purchased Reaction Biology Corporation
Procedure, shortened: as §1

PKAcb = biological target: T19, PKAcb (Homo sapiens, UniProt P22694); details: ATP 10 μM, Data1, Data2
T19 construct: purchased Reaction Biology Corporation
Procedure, shortened: as §1

PKCiota = biological target: T20, PKCiota (Homo sapiens, UniProt P41743); details: ATP 10 μM, Data1, Data2
T20 construct: purchased Reaction Biology Corporation
T20 sequence (P41743 whole entry): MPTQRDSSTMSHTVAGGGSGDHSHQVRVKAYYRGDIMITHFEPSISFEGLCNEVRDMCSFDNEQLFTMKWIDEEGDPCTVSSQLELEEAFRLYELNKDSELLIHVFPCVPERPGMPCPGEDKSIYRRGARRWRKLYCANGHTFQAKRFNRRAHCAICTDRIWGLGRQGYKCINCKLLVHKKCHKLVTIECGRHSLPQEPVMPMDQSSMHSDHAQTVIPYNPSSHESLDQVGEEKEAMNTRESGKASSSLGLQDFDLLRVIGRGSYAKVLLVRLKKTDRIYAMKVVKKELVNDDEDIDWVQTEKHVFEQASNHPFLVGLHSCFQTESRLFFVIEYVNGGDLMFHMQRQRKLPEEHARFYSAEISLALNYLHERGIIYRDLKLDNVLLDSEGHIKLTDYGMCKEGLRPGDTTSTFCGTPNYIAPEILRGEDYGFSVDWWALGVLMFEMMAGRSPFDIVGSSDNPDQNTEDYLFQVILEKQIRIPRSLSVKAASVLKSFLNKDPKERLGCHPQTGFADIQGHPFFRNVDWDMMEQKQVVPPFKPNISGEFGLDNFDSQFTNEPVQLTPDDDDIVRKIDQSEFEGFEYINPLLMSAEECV
Procedure, shortened: as §1

HIPK2 = biological target: T21, HIPK2 (Homo sapiens, UniProt Q9H2X6); details: ATP 10 μM, Data1, Data2
T21 construct: purchased Reaction Biology Corporation
Procedure, shortened: as §1

EPHB2 = biological target: T22, EPHB2 (Homo sapiens, UniProt P29323); details: ATP 10 μM, Data1, Data2
T22 construct: purchased Reaction Biology Corporation
T22 sequence (P29323 19-1055): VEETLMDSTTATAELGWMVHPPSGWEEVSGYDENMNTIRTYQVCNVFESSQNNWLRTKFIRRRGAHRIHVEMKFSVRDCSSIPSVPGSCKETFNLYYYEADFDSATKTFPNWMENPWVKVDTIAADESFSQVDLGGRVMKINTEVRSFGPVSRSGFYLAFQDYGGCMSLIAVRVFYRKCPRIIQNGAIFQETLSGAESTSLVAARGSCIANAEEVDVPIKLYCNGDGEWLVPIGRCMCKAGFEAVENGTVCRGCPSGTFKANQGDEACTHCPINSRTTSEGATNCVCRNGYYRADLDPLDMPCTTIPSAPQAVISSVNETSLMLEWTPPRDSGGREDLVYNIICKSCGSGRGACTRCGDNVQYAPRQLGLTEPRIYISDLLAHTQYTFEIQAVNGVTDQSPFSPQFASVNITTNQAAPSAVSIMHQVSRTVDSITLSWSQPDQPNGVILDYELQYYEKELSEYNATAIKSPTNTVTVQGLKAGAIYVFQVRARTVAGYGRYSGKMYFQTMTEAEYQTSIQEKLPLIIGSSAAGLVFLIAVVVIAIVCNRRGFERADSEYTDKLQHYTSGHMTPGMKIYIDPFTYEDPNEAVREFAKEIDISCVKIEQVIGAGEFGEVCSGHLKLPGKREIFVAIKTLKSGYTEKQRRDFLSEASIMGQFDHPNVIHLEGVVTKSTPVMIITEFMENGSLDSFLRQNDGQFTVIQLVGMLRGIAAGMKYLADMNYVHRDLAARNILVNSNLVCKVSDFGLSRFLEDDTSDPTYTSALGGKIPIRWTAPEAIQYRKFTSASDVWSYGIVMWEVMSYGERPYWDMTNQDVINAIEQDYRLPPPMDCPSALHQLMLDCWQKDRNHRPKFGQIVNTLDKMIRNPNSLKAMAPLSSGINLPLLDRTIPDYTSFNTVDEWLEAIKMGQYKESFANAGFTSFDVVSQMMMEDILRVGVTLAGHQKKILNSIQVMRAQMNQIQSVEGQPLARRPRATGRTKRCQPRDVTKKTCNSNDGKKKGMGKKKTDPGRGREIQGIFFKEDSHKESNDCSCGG
Procedure, shortened: as §1

DCAMKL2 = biological target: T23, DCAMKL2 (Homo sapiens, UniProt Q8N568); details: ATP 10 μM, Data1, Data2
T23 construct: purchased Reaction Biology Corporation
Procedure, shortened: as §1

DDR2 = biological target: T24, DDR2 (Homo sapiens, UniProt Q16832); details: ATP 10 μM, Data1, Data2
T24 construct: purchased Reaction Biology Corporation
T24 sequence (Q16832 22-855): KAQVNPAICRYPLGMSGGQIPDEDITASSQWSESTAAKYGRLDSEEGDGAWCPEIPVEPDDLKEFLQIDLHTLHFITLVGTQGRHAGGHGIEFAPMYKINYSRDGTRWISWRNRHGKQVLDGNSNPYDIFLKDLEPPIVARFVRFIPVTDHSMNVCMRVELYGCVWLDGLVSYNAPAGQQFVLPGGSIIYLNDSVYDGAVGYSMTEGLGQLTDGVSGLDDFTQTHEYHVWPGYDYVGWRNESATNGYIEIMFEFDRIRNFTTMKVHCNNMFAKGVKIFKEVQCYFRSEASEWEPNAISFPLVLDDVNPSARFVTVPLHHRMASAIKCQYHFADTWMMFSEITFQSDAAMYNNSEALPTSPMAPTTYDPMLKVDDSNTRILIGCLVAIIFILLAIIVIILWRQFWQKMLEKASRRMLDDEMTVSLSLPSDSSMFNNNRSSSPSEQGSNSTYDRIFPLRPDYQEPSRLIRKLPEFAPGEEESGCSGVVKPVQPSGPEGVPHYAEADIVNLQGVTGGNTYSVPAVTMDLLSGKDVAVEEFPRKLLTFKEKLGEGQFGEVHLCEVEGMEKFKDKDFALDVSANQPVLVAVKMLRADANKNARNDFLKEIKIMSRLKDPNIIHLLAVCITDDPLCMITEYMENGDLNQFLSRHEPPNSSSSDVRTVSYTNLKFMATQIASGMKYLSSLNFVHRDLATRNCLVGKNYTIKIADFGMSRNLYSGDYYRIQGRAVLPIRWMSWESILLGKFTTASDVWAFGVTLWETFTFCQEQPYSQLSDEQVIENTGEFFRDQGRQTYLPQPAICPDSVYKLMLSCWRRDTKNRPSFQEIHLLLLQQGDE
Procedure, shortened: as §1

EPHB3 = biological target: T25, EPHB3 (Homo sapiens, UniProt P54753); details: ATP 10 μM, Data1, Data2
T25 construct: purchased Reaction Biology Corporation
Procedure, shortened: as §1

PKCnu/PRKD3 = biological target: T26, PKCnu/PRKD3 (Homo sapiens, UniProt O94806); details: ATP 10 μM, Data1, Data2
T26 construct: purchased Reaction Biology Corporation
Procedure, shortened: as §1

SRPK2 = biological target: T27, SRPK2 (Homo sapiens, UniProt P78362); details: ATP 10 μM, Data1, Data2
T27 construct: purchased Reaction Biology Corporation
T27 sequence (P78362 whole entry): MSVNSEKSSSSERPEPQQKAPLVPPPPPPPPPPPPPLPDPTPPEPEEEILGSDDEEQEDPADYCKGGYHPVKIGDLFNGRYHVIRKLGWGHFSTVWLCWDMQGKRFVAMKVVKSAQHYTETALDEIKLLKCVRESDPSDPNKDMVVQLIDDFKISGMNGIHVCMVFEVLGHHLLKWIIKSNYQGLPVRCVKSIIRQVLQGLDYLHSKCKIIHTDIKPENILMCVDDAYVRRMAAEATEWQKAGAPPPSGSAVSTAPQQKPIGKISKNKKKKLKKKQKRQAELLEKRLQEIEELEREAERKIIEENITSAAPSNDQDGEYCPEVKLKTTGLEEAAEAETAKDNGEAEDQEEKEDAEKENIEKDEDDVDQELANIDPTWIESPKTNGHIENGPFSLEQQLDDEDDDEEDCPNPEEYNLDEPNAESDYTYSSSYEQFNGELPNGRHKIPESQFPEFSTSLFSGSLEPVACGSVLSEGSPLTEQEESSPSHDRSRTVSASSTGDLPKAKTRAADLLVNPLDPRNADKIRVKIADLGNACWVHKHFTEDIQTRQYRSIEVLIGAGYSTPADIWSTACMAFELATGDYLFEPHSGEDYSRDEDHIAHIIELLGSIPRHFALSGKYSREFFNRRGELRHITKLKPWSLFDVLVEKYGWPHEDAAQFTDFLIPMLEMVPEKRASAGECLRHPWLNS
Procedure, shortened: as §1

CDK9/cyclin T2 = biological target: T28, CDK9/cyclin T2 (Homo sapiens, UniProt P50750); details: ATP 10 μM, Data1, Data2
T28 construct: purchased Reaction Biology Corporation
Procedure, shortened: as §1

LATS1 = biological target: T29, LATS1 (Homo sapiens, UniProt O95835); details: ATP 10 μM, Data1, Data2
T29 construct: purchased Reaction Biology Corporation
Procedure, shortened: as §1

NEK7 = biological target: T30, NEK7 (Homo sapiens, UniProt Q8TDX7); details: ATP 10 μM, Data1, Data2
T30 construct: purchased Reaction Biology Corporation
T30 sequence (Q8TDX7 whole entry): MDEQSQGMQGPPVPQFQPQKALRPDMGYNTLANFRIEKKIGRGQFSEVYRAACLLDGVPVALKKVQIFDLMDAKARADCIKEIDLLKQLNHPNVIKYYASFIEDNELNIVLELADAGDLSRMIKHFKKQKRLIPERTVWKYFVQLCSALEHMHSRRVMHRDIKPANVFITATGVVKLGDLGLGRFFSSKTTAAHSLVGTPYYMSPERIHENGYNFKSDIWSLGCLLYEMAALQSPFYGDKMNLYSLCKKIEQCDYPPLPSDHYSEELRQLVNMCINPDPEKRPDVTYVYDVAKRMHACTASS
Procedure, shortened: as §1

IKKe/IKBKE = biological target: T31, IKKe/IKBKE (Homo sapiens, UniProt Q14164); details: ATP 10 μM, Data1, Data2
T31 construct: purchased Reaction Biology Corporation
Procedure, shortened: as §1

MAPKAPK3 = biological target: T32, MAPKAPK3 (Homo sapiens, UniProt Q16644); details: ATP 10 μM, Data1, Data2
T32 construct: purchased Reaction Biology Corporation
Procedure, shortened: as §1

DYRK2 = biological target: T33, DYRK2 (Homo sapiens, UniProt Q92630); details: ATP 10 μM, Data1, Data2
T33 construct: purchased Reaction Biology Corporation
Procedure, shortened: as §1

Question: Which results are given for `CC(=O)Nc1nc2ccc(-c3cnc(C)c(NC(=O)OC4CCCCC4)c3)cc2s1` [PK68, cyclohexyl (5-(2-acetamidobenzo[d]thiazol-6-yl)-2-methylpyridin-3-yl)carbamate]?
Answer: Activity% (LRRK2; 1 μM): 66.88%; activity at 1 µM (LRRK2): 67.7%; Activity% (HCK; 1 μM): 100.14%; activity at 1 µM (HCK): 102%; Activity% (CDK9/cyclin T1; 1 μM): 110.56%; activity at 1 µM (CDK9/cyclin T1): 111%; Activity% (GSK3a; 1 μM): 101.33%; activity at 1 µM (GSK3a): 102%; Activity% (LIMK2; 1 μM, ATP 10 μM, Data1, Data2): 42.64%; activity at 1 µM (LIMK2; 1 μM, ATP 10 μM, Data1, Data2): 44%; inhibition at 1 µM (LIMK2; at 1000 nM): > 50%; Activity% (PKG1b; 1 μM): 84.59%; activity at 1 µM (PKG1b): 85%; Activity% (PKA; 1 μM): 105.35%; activity at 1 µM (PKA): 105%; Activity% (FES/FPS; 1 μM): 96.80%; activity at 1 µM (FES/FPS): 96.9%; Activity% (NEK9; 1 μM): 90.50%; activity at 1 µM (NEK9): 90.9%; Activity% (CAMK2d; 1 μM): 98.13%; activity at 1 µM (CAMK2d): 98.9%; Activity% (IKKb/IKBKB; 1 μM): 107.97%; activity at 1 µM (IKKb/IKBKB): 109%; Activity% (c-MET; 1 μM): 101.99%; activity at 1 µM (c-MET): 102%; Activity% (PKCzeta; 1 μM): 102.04%; activity at 1 µM (PKCzeta): 103%; Activity% (SRPK1; 1 μM): 99.67%; activity at 1 µM (SRPK1): 100%; Activity% (RSK1; 1 μM): 98.15%; activity at 1 µM (RSK1): 100%; Activity% (FGFR4; 1 μM): 89.46%; activity at 1 µM (FGFR4): 89.9%; Activity% (KSR2; 1 μM): 99.64%; activity at 1 µM (KSR2): 100%; Activity% (NLK; 1 μM): 98.89%; activity at 1 µM (NLK): 103%; Activity% (PKAcb; 1 μM): 100.88%; activity at 1 µM (PKAcb): 103%; Activity% (PKCiota; 1 μM): 92.87%; activity at 1 µM (PKCiota): 97%; Activity% (HIPK2; 1 μM): 110.22%; activity at 1 µM (HIPK2): 111%; Activity% (EPHB2; 1 μM): 101.30%; activity at 1 µM (EPHB2): 102%; Activity% (DCAMKL2; 1 μM): 99.58%; activity at 1 µM (DCAMKL2): 100%; Activity% (DDR2; 1 μM): 103.50%; activity at 1 µM (DDR2): 105%; Activity% (EPHB3; 1 μM): 98.23%; activity at 1 µM (EPHB3): 98.8%; Activity% (PKCnu/PRKD3; 1 μM): 101.06%; activity at 1 µM (PKCnu/PRKD3): 102%; Activity% (SRPK2; 1 μM): 100.99%; activity at 1 µM (SRPK2): 101%; Activity% (CDK9/cyclin T2; 1 μM): 88.23%; activity at 1 µM (CDK9/cyclin T2): 90.7%; Activity% (LATS1; 1 μM): 101.83%; activity at 1 µM (LATS1): 103%; Activity% (NEK7; 1 μM): 103.37%; activity at 1 µM (NEK7): 105%; Activity% (IKKe/IKBKE; 1 μM): 92.74%; activity at 1 µM (IKKe/IKBKE): 98.2%; Activity% (MAPKAPK3; 1 μM): 100.67%; activity at 1 µM (MAPKAPK3): 102%; Activity% (DYRK2; 1 μM): 85.35%; activity at 1 µM (DYRK2): 86.3%

Source: PMC6591251, “Discovery of potent necroptosis inhibitors targeting RIPK1 kinase activity for the treatment of inflammatory disorder and cancer metastasis” (Cell Death & Disease, 2019)
